Measured values reported in patent US8076324B2, “Di(hetero)arylcyclohexane derivatives, their preparation, their use and pharmaceutical compositions comprising them” (Sanofi-Aventis, priority 2007, dated 2011).

Legend:
[1] = molecular target: T1, myocardial ATP-sensitive potassium channel (SUR2A/Kir6.2) (UniProt Q61743+Q63563); test: Rubidium efflux test on HEK293 cells transfected with SUR2A and Kir6.2 (myocardial action); type: cell-based, SUR2A from the rat, Kir6.2 from the mouse; conditions: HEK293 cells transfected with SUR2A/Kir6.2; KATP channels opened by rilmakalim; 25 min incubation; read-out: IC50 values for the inhibition of the rubidium efflux
T1 construct: expressed in transfected cells
Outline: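 HEK293 cells stably expressing mouse Kir6.2 and rat SUR2A loaded 3 h at 37 °C with 5.4 mM RbCl, then test compound added and channels opened with rilmakalim (2 μM, stock as added) for 25 min at 37 °C. Rb+ in supernatant and lysate by atomic absorption; efflux = supernatant/total, IC50 via Hill equation.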

T1 sequence (Q63563 whole entry): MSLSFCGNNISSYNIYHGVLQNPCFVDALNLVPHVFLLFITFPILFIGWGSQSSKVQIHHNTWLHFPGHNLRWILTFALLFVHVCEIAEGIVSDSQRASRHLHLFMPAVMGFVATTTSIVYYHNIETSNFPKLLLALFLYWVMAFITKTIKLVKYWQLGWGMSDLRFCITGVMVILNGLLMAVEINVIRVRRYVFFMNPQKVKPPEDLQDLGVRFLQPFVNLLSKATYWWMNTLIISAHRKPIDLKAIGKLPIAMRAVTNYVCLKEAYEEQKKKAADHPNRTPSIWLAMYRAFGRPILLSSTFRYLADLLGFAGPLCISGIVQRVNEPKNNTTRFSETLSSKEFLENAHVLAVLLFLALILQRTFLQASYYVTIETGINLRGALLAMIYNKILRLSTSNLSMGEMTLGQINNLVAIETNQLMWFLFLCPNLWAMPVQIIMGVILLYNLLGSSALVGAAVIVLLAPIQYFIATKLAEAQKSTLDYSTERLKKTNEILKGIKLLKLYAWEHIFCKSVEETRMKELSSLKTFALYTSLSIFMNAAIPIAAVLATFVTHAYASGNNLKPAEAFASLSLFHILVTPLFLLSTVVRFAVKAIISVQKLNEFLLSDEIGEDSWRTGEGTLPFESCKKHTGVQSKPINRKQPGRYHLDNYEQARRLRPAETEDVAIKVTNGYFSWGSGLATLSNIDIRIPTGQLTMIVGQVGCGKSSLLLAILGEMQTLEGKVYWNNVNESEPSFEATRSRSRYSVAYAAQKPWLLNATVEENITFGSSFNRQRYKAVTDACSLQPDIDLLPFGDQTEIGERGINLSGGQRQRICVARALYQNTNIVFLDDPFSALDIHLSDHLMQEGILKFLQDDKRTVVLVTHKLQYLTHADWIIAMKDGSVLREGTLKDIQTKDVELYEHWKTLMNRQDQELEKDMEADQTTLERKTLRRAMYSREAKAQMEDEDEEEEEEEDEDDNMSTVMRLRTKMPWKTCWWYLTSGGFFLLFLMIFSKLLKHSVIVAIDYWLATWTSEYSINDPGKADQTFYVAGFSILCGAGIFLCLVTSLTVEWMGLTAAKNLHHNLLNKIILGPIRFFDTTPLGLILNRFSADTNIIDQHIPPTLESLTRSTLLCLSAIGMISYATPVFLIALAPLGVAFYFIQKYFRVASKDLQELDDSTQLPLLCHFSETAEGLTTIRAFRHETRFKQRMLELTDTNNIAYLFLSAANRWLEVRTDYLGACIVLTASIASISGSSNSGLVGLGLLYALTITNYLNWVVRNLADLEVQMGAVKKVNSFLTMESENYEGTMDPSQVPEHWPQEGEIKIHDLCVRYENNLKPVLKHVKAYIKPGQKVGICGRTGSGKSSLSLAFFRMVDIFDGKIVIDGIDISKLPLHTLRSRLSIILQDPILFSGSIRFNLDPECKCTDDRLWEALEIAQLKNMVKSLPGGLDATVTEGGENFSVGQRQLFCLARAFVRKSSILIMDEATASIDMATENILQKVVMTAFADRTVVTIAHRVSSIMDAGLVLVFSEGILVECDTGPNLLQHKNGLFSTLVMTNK
T1 sequence (Q61743 whole entry): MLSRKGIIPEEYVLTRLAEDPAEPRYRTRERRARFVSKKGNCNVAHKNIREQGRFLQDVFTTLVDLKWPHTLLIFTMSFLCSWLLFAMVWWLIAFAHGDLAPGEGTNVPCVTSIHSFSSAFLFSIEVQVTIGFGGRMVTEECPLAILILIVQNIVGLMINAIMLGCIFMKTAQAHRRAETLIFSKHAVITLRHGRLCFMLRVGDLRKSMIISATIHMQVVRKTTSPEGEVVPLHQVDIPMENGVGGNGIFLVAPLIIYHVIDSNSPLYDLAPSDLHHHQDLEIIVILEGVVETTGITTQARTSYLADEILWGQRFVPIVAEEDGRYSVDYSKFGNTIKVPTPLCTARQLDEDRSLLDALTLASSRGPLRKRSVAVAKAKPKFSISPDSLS

SMILES	IC50 [1] [nM]	melting point [°C]
Cc1c(S(C)(=O)=O)nc([C@]2(OCC3CC3)CC[C@](C(=O)O)(c3ccccc3)CC2)n1CC1CC1 [Example 422, Cis-4-Cyclopropylmethoxy-4-(1-cyclopropylmethyl-5-methyl-4-methanesulfonyl-1H-imidazol-2-yl)-1-phenylcyclohexanecarboxylic Acid]	< 1000	242
Cc1nc([C@]2(OCC3CC3)CC[C@](C(=O)O)(c3ccccc3)CC2)n(CC2CC2)c1-c1ccccc1 [Example 426, Cis-4-Cyclopropylmethoxy-4-(1-cyclopropylmethyl-4-methyl-5-phenyl-1H-imidazol-2-yl)-1-phenylcyclohexanecarboxylic Acid]	< 1000	218
Cc1nc([C@]2(OCC3CC3)CC[C@](C(=O)O)(c3ccccc3)CC2)n(CC2CC2)c1-c1ccc(F)cc1 [Example 427, Cis-4-Cyclopropylmethoxy-4-[1-cyclopropylmethyl-5-(4-fluorophenyl)-4-methyl-1H-imidazol-2-yl]-1-phenylcyclohexanecarboxylic Acid]	< 1000	199
O=C(O)[C@]1(c2ccc(F)cc2)CC[C@](OCC2CC2)(c2cn(CC3CC3)c(-c3ccccc3)n2)CC1 [Example 432, Trans-4-Cyclopropylmethoxy-4-(1-cyclopropylmethyl-2-phenyl-1H-imidazol-4-yl)-1-(4-fluorophenyl)cyclohexanecarboxylic Acid]	< 1000	209
CS(=O)(=O)n1c2ccccc2cc1[C@]1(OCC2CC2)CC[C@](C(=O)O)(c2ccccc2)CC1 [Example 440, Cis-4-Cyclopropylmethoxy-4-(1-methanesulfonyl-1H-indol-2-yl)-1-phenylcyclohexanecarboxylic Acid]	< 1000	152
CS(=O)(=O)c1cccc(-c2nc([C@]3(Oc4ccccc4)CC[C@@](C(=O)O)(c4ccccc4)CC3)n(CC3CC3)n2)c1 [Example 463, Trans-4-[2-Cyclopropylmethyl-5-(3-methanesulfonylphenyl)-2H-[1,2,4]triazol-3-yl]-4-phenoxy-1-phenylcyclohexanecarboxylic Acid]	< 1000	198
O=C(O)[C@]1(c2ccccc2)CC[C@@](Oc2ccc(C(F)(F)F)cc2)(c2nc(-c3ccccc3)n(CC3CC3)n2)CC1 [Example 474, Cis-4-(1-Cyclopropylmethyl-5-phenyl-1H-[1,2,4]triazol-3-yl)-1-phenyl-4-(4-trifluoromethylphenoxy)cyclohexanecarboxylic Acid]	< 1000	85
